From PubChem BioAssay AID248 (DTP/NCI, 2004)
Toxic doses and inconclusive results are not listed. Cut-off read from the data, not from the text of the source: active = T/C of 150% or more; inactive = T/C below 125%.

Test system: L1210 leukemia ip in BDF1 mice, survival T/C
Assay: NCI In Vivo Anticancer Drug Screen. Data for tumor model L1210 Leukemia (intraperitoneal) in B6D2F1 (BDF1) mice
Conditions: endpoint: mean survival time, higher = longer survival
Summary of the method: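 Value reflects the ratio of survival in compound-treated mice to survival in vehicle-treated controls, with both groups carrying the same transplanted tumor.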

[1] = dose: 25.0 mg/kg/injection, schedule: Q01DX009 (ip), vehicle: Klucel (hydroxypropylcellulose) (HPC)
[2] = dose: 25.0 mg/kg/injection, schedule: Q04DX003 (ip), vehicle: Klucel (hydroxypropylcellulose) (HPC)
[3] = dose: 50.0 mg/kg/injection, schedule: Q01DX009 (ip), vehicle: Klucel (hydroxypropylcellulose) (HPC)
[4] = dose: 50.0 mg/kg/injection, schedule: Q04DX003 (ip), vehicle: Klucel (hydroxypropylcellulose) (HPC)
[5] = dose: 100.0 mg/kg/injection, schedule: Q01DX009 (ip), vehicle: Klucel (hydroxypropylcellulose) (HPC)
[6] = dose: 100.0 mg/kg/injection, schedule: Q04DX003 (ip), vehicle: Klucel (hydroxypropylcellulose) (HPC)
[7] = dose: 200.0 mg/kg/injection, schedule: Q01DX009 (ip), vehicle: Klucel (hydroxypropylcellulose) (HPC)
[8] = dose: 200.0 mg/kg/injection, schedule: Q04DX003 (ip), vehicle: Klucel (hydroxypropylcellulose) (HPC)
[9] = dose: 400.0 mg/kg/injection, schedule: Q01DX009 (ip), vehicle: Klucel (hydroxypropylcellulose) (HPC)
[10] = dose: 400.0 mg/kg/injection, schedule: Q04DX003 (ip), vehicle: Klucel (hydroxypropylcellulose) (HPC)
[11] = dose: 100.0 mg/kg/injection, schedule: Q04DX003 (ip), vehicle: saline with Tween-80
[12] = dose: 200.0 mg/kg/injection, schedule: Q04DX003 (ip), vehicle: saline with Tween-80
[13] = dose: 400.0 mg/kg/injection, schedule: Q04DX003 (ip), vehicle: saline with Tween-80
[14] = dose: 5.0 mg/kg/injection, schedule: Q01DX001 (ip), vehicle: saline
[15] = dose: 10.0 mg/kg/injection, schedule: Q01DX001 (ip), vehicle: saline

Measured: T/C

CC1OC(n2ncc(=O)[nH]c2=O)C2OC(C)(C)OC2C1=O (stereo not drawn)
inactive: dose: 12.5 mg/kg/injection, schedule: Q01DX005 (ip), vehicle: distilled water + Tween-80 108 % of control | dose: 25.0 mg/kg/injection, schedule: Q01DX005 (ip), vehicle: distilled water + Tween-80 95 % of control | dose: 50.0 mg/kg/injection, schedule: Q01DX005 (ip), vehicle: distilled water + Tween-80 92 % of control | dose: 100.0 mg/kg/injection, schedule: Q01DX005 (ip), vehicle: distilled water + Tween-80 95 % of control | dose: 200.0 mg/kg/injection, schedule: Q01DX005 (ip), vehicle: distilled water + Tween-80 97 % of control

Cc1ccc(NC2=CCC(=O)OC2=O)cc1
inactive: [1] 93 % of control | [2] 100 % of control | [3] 88 % of control | [4] 105 % of control | [5] 90 % of control | [6] 97 % of control | [7] 97 % of control | [8] 97 % of control | [9] 88 % of control | [10] 92 % of control

COc1ccc2c(c1)C(CO)c1ccc(Cl)cc1N2 (stereo not drawn)
inactive: [11] 93 % of control | [12] 96 % of control | [13] 94 % of control

CC(=O)Oc1cc(OC(C)=O)c2c(OC(C)=O)c3c(OC(C)=O)cc(C)cc3cc2c1
inactive: [14] 112 % of control | [15] 113 % of control

COc1ccc([N+](=O)[O-])cc1NC(=O)Nc1ccc(N(C)C(C)=O)cc1
inactive: [3] 105 % of control | [5] 111 % of control | [7] 101 % of control

O=[N+]([O-])c1cnccc1Nc1ccncc1
inactive: [11] 98 % of control | [12] 94 % of control

O=C1c2ccccc2C[CH]1[Hg][Cl] (stereo not drawn)
inactive: [14] 103 % of control | [15] 102 % of control

COc1ccc(OC)c(NC(=O)Nc2c(C)n(C)n(-c3ccccc3)c2=O)c1
inactive: [5] 93 % of control | [6] 98 % of control | [7] 93 % of control | [8] 93 % of control | [9] 101 % of control | [10] 90 % of control

Cc1cnc(C#N)c(C#N)n1
inactive: dose: 12.5 mg/kg/injection, schedule: Q04DX002 (ip), vehicle: Klucel (hydroxypropylcellulose) (HPC) 100 % of control | dose: 25.0 mg/kg/injection, schedule: Q04DX002 (ip), vehicle: Klucel (hydroxypropylcellulose) (HPC) 96 % of control | dose: 50.0 mg/kg/injection, schedule: Q04DX002 (ip), vehicle: Klucel (hydroxypropylcellulose) (HPC) 96 % of control

CC(C)=COC(=N)C(N)=O
inactive: dose: 100.0 mg/kg/injection, schedule: Q04DX003 (ip), vehicle: other 100 % of control | dose: 200.0 mg/kg/injection, schedule: Q04DX003 (ip), vehicle: other 97 % of control | dose: 400.0 mg/kg/injection, schedule: Q04DX003 (ip), vehicle: other 115 % of control

N#CC(c1ccc(Cl)cc1)C(C/C(=N/Nc1ccc([N+](=O)[O-])cc1[N+](=O)[O-])c1ccccc1)c1ccccc1 (stereo not drawn)
inactive: dose: 25.0 mg/kg/injection, schedule: Q01DX001 (ip), vehicle: saline with Tween-80 91 % of control | dose: 50.0 mg/kg/injection, schedule: Q01DX001 (ip), vehicle: saline with Tween-80 93 % of control | dose: 100.0 mg/kg/injection, schedule: Q01DX001 (ip), vehicle: saline with Tween-80 95 % of control

C=Cc1c2ccccc2cc2c1ccc1ccccc12
inactive: dose: 100.0 mg/kg/injection, schedule: Q04DX002 (ip), vehicle: other 102 % of control | dose: 200.0 mg/kg/injection, schedule: Q04DX002 (ip), vehicle: other 106 % of control | dose: 400.0 mg/kg/injection, schedule: Q04DX002 (ip), vehicle: other 109 % of control

C#CCCCCC#CCCCCNC(=O)NCCCCC#CCCCCC#C
inactive: dose: 100.0 mg/kg/injection, schedule: Q04DX003 (ip), vehicle: saline 93 % of control | dose: 200.0 mg/kg/injection, schedule: Q04DX003 (ip), vehicle: saline 90 % of control | dose: 400.0 mg/kg/injection, schedule: Q04DX003 (ip), vehicle: saline 87 % of control

NC(N)=N/N=C\c1ccc2ccccc2c1
inactive: [11] 100 % of control | [13] 88 % of control

O=S(=O)(CBr)CC(Cl)c1ccccc1 (stereo not drawn)
inactive: dose: 100.0 mg/kg/injection, schedule: Q04DX002 (ip), vehicle: Klucel (hydroxypropylcellulose) (HPC) 100 % of control | dose: 200.0 mg/kg/injection, schedule: Q04DX002 (ip), vehicle: Klucel (hydroxypropylcellulose) (HPC) 106 % of control | dose: 400.0 mg/kg/injection, schedule: Q04DX002 (ip), vehicle: Klucel (hydroxypropylcellulose) (HPC) 100 % of control

COc1cc(CCNC(=O)Cc2ccc(OCc3ccccc3)c(OC)c2)ccc1OCc1ccccc1
inactive: dose: 100.0 mg/kg/injection, schedule: Q01DX009 (ip), vehicle: saline with Tween-80 89 % of control | dose: 200.0 mg/kg/injection, schedule: Q01DX009 (ip), vehicle: saline with Tween-80 101 % of control | dose: 400.0 mg/kg/injection, schedule: Q01DX009 (ip), vehicle: saline with Tween-80 94 % of control

CCN1CSC(=S)N(CC)C1
inactive: dose: 12.5 mg/kg/injection, schedule: Q04DX003 (ip), vehicle: Klucel (hydroxypropylcellulose) (HPC) 96 % of control | [1] 103 % of control | [2] 112 % of control | [3] 109 % of control | [4] 103 % of control

CN(C)c1nnc([N+](=O)[O-])s1
inactive: dose: 62.0 mg/kg/injection, schedule: Q04DX003 (ip), vehicle: Klucel (hydroxypropylcellulose) (HPC) 93 % of control | dose: 123.0 mg/kg/injection, schedule: Q04DX003 (ip), vehicle: Klucel (hydroxypropylcellulose) (HPC) 87 % of control

O=[N+]([O-])c1ccc(S(=O)(=O)Oc2ccccc2)cc1
inactive: dose: 50.0 mg/kg/injection, schedule: Q01DX009 (ip), vehicle: saline sonified 93 % of control | dose: 100.0 mg/kg/injection, schedule: Q01DX009 (ip), vehicle: saline sonified 103 % of control | [6] 98 % of control | dose: 200.0 mg/kg/injection, schedule: Q01DX009 (ip), vehicle: saline sonified 92 % of control | [8] 91 % of control
